From patent US20110195041A1, “ANTIMICROBIAL COMPOSITIONS” (NDSU RESEARCH FOUNDATION, priority 2008, published 2011)
In brackets after ≈: the same amount, converted by molar mass.

Legend:
C. lytica = experiment: Minimum inhibitory concentration (MIC) of triclosan; assay type: cell-based; conditions: Cellulophaga lytica; marine broth; range 0.2 to 25 μg/mL; complete growth inhibition
Method: (§1) The antimicrobial activity of triclosan toward the microorganisms of interest was determined by measuring the minimum inhibitor concentration (MIC). The protocol for determining the minimum inhibitory concentration (MIC) of antimicrobial agents in solution has been reported previously (described in Stafslien, S., et al., Biofouling, 2007. 23(1/2): 37-44.). Triclosan was serially diluted (2-fold) in marine broth, tryptic soy broth, and Guillard's F/2 medium for the MIC evaluation of C. lytica, S. epidermidis or E. coli, and N. incerta, respectively. The triclosan concentration range evaluated was from 0.2 μg/mL to 25 μg/mL.

S. epidermidis = experiment: as above; assay type: cell-based; conditions: Staphylococcus epidermidis; tryptic soy broth; range 0.2 to 25 μg/mL; complete growth inhibition
Method: as §1

Oc1cc(Cl)ccc1Oc1ccc(Cl)cc1Cl [Triclosan, 5-chloro-2-(2,4-dichlorophenoxy)phenol]
MIC (C. lytica): 12.5 µg/mL (≈ 43.2 µM)
MIC (S. epidermidis): ≤ 0.2 µg/mL
